# Source: patent US20230233576A1, “ECLITASERTIB FOR USE IN TREATING CONDITIONS INVOLVING SYSTEMIC HYPERINFLAMMATORY RESPONSE” (priority 2020, published 2023)
# Tested on: SARS-COV-2 viral load in blood
# Test: Phase 1b severe COVID-19 study: quantitative SARS-COV-2 viral load in blood
# Conditions: for Viral load in plasma: <1660 CP/ML SARS-COV2, number of participants / Viral load in plasma: <1660 CP/ML SARS-COV2, share of participants (in parentheses) / Viral load in plasma: INCONCLUSIVE, number of participants / Viral load in plasma: INCONCLUSIVE, share of participants (in parentheses) / Viral load in plasma: NO SARS-COV2 DETECTED, number of participants / Viral load in plasma: NO SARS-COV2 DETECTED, share of participants (in parentheses) / Viral load in plasma: POSITIVE RESULT, number of participants / Viral load in plasma: POSITIVE RESULT, share of participants (in parentheses): 600 mg (N = 41); for Viral load in plasma: Positive result, Mean / Viral load in plasma: Positive result, Median: 600 mg, participants with positive result
# Excerpt: The clinical assessment in this study included both the assessment of clinical laboratory variables (CRP, laboratory markers of severe COVID-19 [D-Dimer, hematology parameters and thrombolytic therapy and vasopressor treatment]), oxygenation variables (saturated oxygen [SpO2], SpO2/fraction of inspired oxygen [FiO2] ratio), and clinical status variables (7-point clinical scale). The pharmacodynamic assessment included the measurement of peripheral biomarkers (pro-inflammatory cytokines and RIPK1 PD cytokines/chemokines), and optional measurement of viral load of SARS-CoV-2.
# Exploratory clinical assessments endpoints included: • Change from baseline in ferritin and LDH at Day 7 and EOT • Proportion of participants per category of the 7-point clinical scale at EOT • Time to improvement by 2 points in category of 7-point clinical scale • Quantitative SARS-COV-2 viral load in blood at baseline and on Day 3, 5, 7 and EOT
# Summary of quantitative measurement of SARS-COV-2 plasma viral load over time (at baseline, Day 3, 5, 7, and EOT) is provided in Table 28. An overall trend of decrease viral load and increased number of negative SARS-COV-2 tests were observed over time. Due to a high variability in the viral load values, no interpretation could be drawn for the effect of treatment on the viral load.
compound,measurement,setting,value
"CN1C(=O)[C@@H](NC(=O)c2nnc(Cc3ccccc3)[nH]2)COc2cccnc21 [RIPK1 Inhibitor, (S)-5-benzyl-N-(5-methyl-4-oxo-2,3,4,5-tetrahydropyrido[3,2-b][1,4]oxazepin-3-yl)-4H-1,2,4-triazole-3-carboxamide]","Viral load in plasma: <1660 CP/ML SARS-COV2, number of participants","DAY 01 (baseline, predose)",14
same,"Viral load in plasma: <1660 CP/ML SARS-COV2, share of participants (in parentheses)","DAY 01 (baseline, predose)",(34.1)
same,"Viral load in plasma: INCONCLUSIVE, number of participants","DAY 01 (baseline, predose)",1
same,"Viral load in plasma: INCONCLUSIVE, share of participants (in parentheses)","DAY 01 (baseline, predose)",(2.4)
same,"Viral load in plasma: NO SARS-COV2 DETECTED, number of participants","DAY 01 (baseline, predose)",11
same,"Viral load in plasma: NO SARS-COV2 DETECTED, share of participants (in parentheses)","DAY 01 (baseline, predose)",(26.8)
same,"Viral load in plasma: POSITIVE RESULT, number of participants","DAY 01 (baseline, predose)",7
same,"Viral load in plasma: POSITIVE RESULT, share of participants (in parentheses)","DAY 01 (baseline, predose)",(17.1)
same,"Viral load in plasma: <1660 CP/ML SARS-COV2, number of participants",DAY 03,12
same,"Viral load in plasma: <1660 CP/ML SARS-COV2, share of participants (in parentheses)",DAY 03,(29.3)
same,"Viral load in plasma: INCONCLUSIVE, number of participants",DAY 03,2
same,"Viral load in plasma: INCONCLUSIVE, share of participants (in parentheses)",DAY 03,(4.9)
same,"Viral load in plasma: NO SARS-COV2 DETECTED, number of participants",DAY 03,16
same,"Viral load in plasma: NO SARS-COV2 DETECTED, share of participants (in parentheses)",DAY 03,(39.0)
same,"Viral load in plasma: POSITIVE RESULT, number of participants",DAY 03,4
same,"Viral load in plasma: POSITIVE RESULT, share of participants (in parentheses)",DAY 03,(9.8)
same,"Viral load in plasma: <1660 CP/ML SARS-COV2, number of participants",DAY 07,1
same,"Viral load in plasma: <1660 CP/ML SARS-COV2, share of participants (in parentheses)",DAY 07,(2.4)
same,"Viral load in plasma: INCONCLUSIVE, number of participants",DAY 07,2
same,"Viral load in plasma: INCONCLUSIVE, share of participants (in parentheses)",DAY 07,(4.9)
same,"Viral load in plasma: NO SARS-COV2 DETECTED, number of participants",DAY 07,12
same,"Viral load in plasma: NO SARS-COV2 DETECTED, share of participants (in parentheses)",DAY 07,(29.3)
same,"Viral load in plasma: POSITIVE RESULT, number of participants",DAY 07,1
same,"Viral load in plasma: POSITIVE RESULT, share of participants (in parentheses)",DAY 07,(2.4)
same,"Viral load in plasma: <1660 CP/ML SARS-COV2, number of participants",EOT,4
same,"Viral load in plasma: <1660 CP/ML SARS-COV2, share of participants (in parentheses)",EOT,(9.8)
same,"Viral load in plasma: INCONCLUSIVE, number of participants",EOT,1
same,"Viral load in plasma: INCONCLUSIVE, share of participants (in parentheses)",EOT,(2.4)
same,"Viral load in plasma: NO SARS-COV2 DETECTED, number of participants",EOT,28
same,"Viral load in plasma: NO SARS-COV2 DETECTED, share of participants (in parentheses)",EOT,(68.3)
same,"Viral load in plasma: POSITIVE RESULT, number of participants",EOT,0
same,"Viral load in plasma: Positive result, Mean","DAY 01 (baseline, predose)",30217.6 copies/mL
same,"Viral load in plasma: Positive result, Median","DAY 01 (baseline, predose)",7560.0 copies/mL
same,"Viral load in plasma: Positive result, Mean",DAY 03,7505.0 copies/mL
same,"Viral load in plasma: Positive result, Median",DAY 03,6332.5 copies/mL
same,"Viral load in plasma: Positive result, Mean",DAY 07,6240.0 copies/mL
same,"Viral load in plasma: Positive result, Median",DAY 07,6240.0 copies/mL
